In US11820773B2, “Tricyclic compounds” (ALIGOS THERAPEUTICS, INC., priority 2020, dated 2023):

test system: HBV; assay: HBV-DNA antiviral assay using HepG2.117 cells (intracellular HBV DNA by qPCR); format: cell-based, genotype D HBV; conditions: Hepatitis B virus, 72 h, HBV DNA inhibition, 3 days incubation, 2% DMSO
Procedure, shortened: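 Endpoints are intracellular HBV DNA by qPCR (interpolated from a gBlock standard curve) and ATP-based viability in duplicate plates. Doxycycline-free HepG2.117 Tet-off cells received compounds (9 concentrations, 4-fold steps, 2% DMSO) for 3 days. Inhibition normalised to DMSO wells; EC50/EC90/CC50 by curve fitting.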

Compared with `C[C@H]1Cc2c(n3ncc(Cc4ccccc4)c3n(-c3ccc(-c4nnc(C(F)(F)F)[nH]4)cc3)c2=O)CN1C(=O)c1ccc(Br)c(C(F)(F)F)c1` (stereo in doubt) [Compound 74b, rac-(11S)-5-benzyl-12-[4-bromo-3-(trifluoromethyl)benzoyl]-11-methyl-7-[4-[5-(trifluoromethyl)-4H-1,2,4-triazol-3-yl]phenyl]-2,3,7,12-tetrazatricyclo[7.4.0.0^2,6]trideca-1(9),3,5-trien-8-one], `Cc1nn[nH]c1-c1ccc(-n2c(=O)c3c(n4ncc(Cc5ccccc5)c24)CN(C(=O)c2ccc(Br)c(C(F)(F)F)c2)[C@H](C)C3)cc1` (stereo in doubt) [Compound 80a, rac-(11R)-5-benzyl-12-[4-bromo-3-(trifluoromethyl)benzoyl]-11-methyl-7-[4-(4-methyl-1H-triazol-5-yl)phenyl]-2,3,7,12-tetrazatricyclo[7.4.0.0^2,6]trideca-1(9),3,5-trien-8-one] is lower in EC50: 50 to 500 nM for the first, less than 50 nM for the second.

First: Cc1nn[nH]c1-c1ccc(-n2c(=O)c3c(n4ncc(CC5CC5)c24)CN(C(=O)c2ccc(Br)c(C(F)(F)F)c2)[C@H](C)C3)cc1 (stereo in doubt) [Compound 75a, rac-(11R)-12-[4-bromo-3-(trifluoromethyl)benzoyl]-5-(cyclopropylmethyl)-11-methyl-7-[4-(4-methyl-1H-triazol-5-yl)phenyl]-2,3,7,12-tetrazatricyclo[7.4.0.0^2,6]trideca-1(9),3,5-trien-8-one]
Second: Cc1nn[nH]c1-c1ccc(-n2c(=O)c3c(n4ncc(CC5CC5)c24)CN(C(=O)c2ccc(Br)c(C(F)(F)F)c2)[C@@H](C)C3)cc1 (stereo in doubt) [Compound 75b, rac-(11S)-12-[4-bromo-3-(trifluoromethyl)benzoyl]-5-(cyclopropylmethyl)-11-methyl-7-[4-(4-methyl-1H-triazol-5-yl)phenyl]-2,3,7,12-tetrazatricyclo[7.4.0.0^2,6]trideca-1(9),3,5-trien-8-one]
The EC50 of the first is lower: less than 50 nM for the first, 50 to 500 nM for the second.

First: Cc1nn[nH]c1-c1ccc(-n2c(=O)c3c(n4ncc(CC5CCC5)c24)CN(C(=O)c2ccc(Br)c(C(F)(F)F)c2)[C@H](C)C3)cc1 (stereo in doubt) [Compound 76a, rac-(11R)-12-[4-bromo-3-(trifluoromethyl)benzoyl]-5-(cyclobutylmethyl)-11-methyl-7-[4-(4-methyl-1H-triazol-5-yl)phenyl]-2,3,7,12-tetrazatricyclo[7.4.0.0^2,6]trideca-1(9),3,5-trien-8-one]
Second: Cc1nn[nH]c1-c1ccc(-n2c(=O)c3c(n4ncc(CC5CCC5)c24)CN(C(=O)c2ccc(Br)c(C(F)(F)F)c2)[C@@H](C)C3)cc1 (stereo in doubt) [Compound 76b, rac-(11S)-12-[4-bromo-3-(trifluoromethyl)benzoyl]-5-(cyclobutylmethyl)-11-methyl-7-[4-(4-methyl-1H-triazol-5-yl)phenyl]-2,3,7,12-tetrazatricyclo[7.4.0.0^2,6]trideca-1(9),3,5-trien-8-one]
The EC50 of the first is lower: less than 50 nM for the first, 50 to 500 nM for the second. The first is the more potent here.

`CNC(=O)c1cc(-n2c(=O)c3c(n4ncc(CC(C)C)c24)CN(C(=O)c2ccc(Br)c(C(F)(F)F)c2)[C@H](C)C3)nn1C` (stereo in doubt) [Compound 77a, N,2-dimethyl-5-[rac-(11R)-12-[4-bromo-3-(trifluoromethyl)benzoyl]-5-isobutyl-11-methyl-8-oxo-2,3,7,12-tetrazatricyclo[7.4.0.0^2,6]trideca-1(9),3,5-trien-7-yl]pyrazole-3-carboxamide] and `CNC(=O)c1cc(-n2c(=O)c3c(n4ncc(CC(C)C)c24)CN(C(=O)c2ccc(Br)c(C(F)(F)F)c2)[C@@H](C)C3)nn1C` (stereo in doubt) [Compound 77b, N,2-dimethyl-5-[rac-(11S)-12-[4-bromo-3-(trifluoromethyl)benzoyl]-5-isobutyl-11-methyl-8-oxo-2,3,7,12-tetrazatricyclo[7.4.0.0^2,6]trideca-1(9),3,5-trien-7-yl]pyrazole-3-carboxamide] cannot be ordered by EC50: less than 50 nM for the first, less than 50 nM for the second.

Compared with `C#CCc1cnn2c3c(c(=O)n(-c4ccc(C(=O)NC)cc4)c12)C[C@@H](C)N(C(=O)c1ccc(Br)c(C(F)(F)F)c1)C3` (stereo in doubt) [Compound 78a, N-methyl-4-[rac-(11R)-12-[4-bromo-3-(trifluoromethyl)benzoyl]-11-methyl-8-oxo-5-prop-2-ynyl-2,3,7,12-tetrazatricyclo[7.4.0.0^2,6]trideca-1 (9),3,5-trien-7-yl]benzamide], `C#CCc1cnn2c3c(c(=O)n(-c4ccc(C(=O)NC)cc4)c12)C[C@H](C)N(C(=O)c1ccc(Br)c(C(F)(F)F)c1)C3` (stereo in doubt) [Compound 78b, N-methyl-4-[rac-(11S)-12-[4-bromo-3-(trifluoromethyl)benzoyl]-11-methyl-8-oxo-5-prop-2-ynyl-2,3,7,12-tetrazatricyclo[7.4.0.0^2,6]trideca-1 (9),3,5-trien-7-yl]benzamide] is higher in EC50: less than 50 nM for the first, 50 to 500 nM for the second.

Compared with `Cc1cnn(-c2ccc(-n3c(=O)c4c(n5ncc(Cc6ccccc6)c35)CN(C(=O)c3ccc(Br)c(C(F)(F)F)c3)[C@H](C)C4)cc2)n1` (stereo in doubt) [Compound 79a, rac-(11R)-5-benzyl-12-[4-bromo-3-(trifluoromethyl)benzoyl]-11-methyl-7-[4-(4-methyltriazol-2-yl)phenyl]-2,3,7,12-tetrazatricyclo[7.4.0.0^2,6]trideca-1(9),3,5-trien-8-one], `Cc1cnn(-c2ccc(-n3c(=O)c4c(n5ncc(Cc6ccccc6)c35)CN(C(=O)c3ccc(Br)c(C(F)(F)F)c3)[C@@H](C)C4)cc2)n1` (stereo in doubt) [Compound 79b, rac-(11S)-5-benzyl-12-[4-bromo-3-(trifluoromethyl)benzoyl]-11-methyl-7-[4-(4-methyltriazol-2-yl)phenyl]-2,3,7,12-tetrazatricyclo[7.4.0.0^2,6]trideca-1(9),3,5-trien-8-one] is higher in EC50: less than 50 nM for the first, 50 to 500 nM for the second.

Compared with `Cc1nn[nH]c1-c1ccc(-n2c(=O)c3c(n4ncc(Cc5ccccc5)c24)CN(C(=O)c2ccc(Br)c(C(F)(F)F)c2)[C@@H](C)C3)cc1` (stereo in doubt) [Compound 80b, rac-(11S)-5-benzyl-12-[4-bromo-3-(trifluoromethyl)benzoyl]-11-methyl-7-[4-(4-methyl-1H-triazol-5-yl)phenyl]-2,3,7,12 tetrazatricyclo[7.4.0.0^2,6]trideca-1(9),3,5-trien-8-one], `C[C@@H]1Cc2c(n3ncc(Cc4ccccc4)c3n(-c3ccc(-c4nn(C)c(=O)[nH]4)cc3)c2=O)CN1C(=O)c1ccc(Br)c(C(F)(F)F)c1` (stereo in doubt) [Compound 82a, rac-(11R)-5-benzyl-12-[4-bromo-3-(trifluoromethyl)benzoyl]-11-methyl-7-[4-(1-methyl-5-oxo-4H-1,2,4-triazol-3-yl)phenyl]-2,3,7,12-tetrazatricyclo[7.4.0.0^2,6]trideca-1(9),3,5-trien-8-one] is lower in EC50: 50 to 500 nM for the first, less than 50 nM for the second.

First: CC(C)Cc1cnn2c3c(c(=O)n(-c4ccc(-c5n[nH]c(=O)n5C)cc4)c12)C[C@@H](C)N(C(=O)c1ccc(Br)c(C(F)(F)F)c1)C3 (stereo in doubt) [Compound 81a, rac-(11R)-12-[4-bromo-3-(trifluoromethyl)benzoyl]-5-isobutyl-11-methyl-7-[4-(4-methyl-5-oxo-1H-1,2,4-triazol-3-yl)phenyl]-2,3,7,12-tetrazatricyclo[7.4.0.0^2,6]trideca-1(9),3,5-trien-8-one]
Second: CC(C)Cc1cnn2c3c(c(=O)n(-c4ccc(-c5n[nH]c(=O)n5C)cc4)c12)C[C@H](C)N(C(=O)c1ccc(Br)c(C(F)(F)F)c1)C3 (stereo in doubt) [Compound 81b, rac-(11S)-12-[4-bromo-3-(trifluoromethyl)benzoyl]-5-isobutyl-11-methyl-7-[4-(4-methyl-5-oxo-1H-1,2,4-triazol-3-yl)phenyl]-2,3,7,12-tetrazatricyclo[7.4.0.0^2,6]trideca-1(9),3,5-trien-8-one]
The EC50 of the first is lower: less than 50 nM for the first, 50 to 500 nM for the second.

Compared with `C[C@H]1Cc2c(n3ncc(Cc4ccccc4)c3n(-c3ccc(-c4nn(C)c(=O)[nH]4)cc3)c2=O)CN1C(=O)c1ccc(Br)c(C(F)(F)F)c1` (stereo in doubt) [Compound 82b, rac-(11S)-5-benzyl-12-[4-bromo-3-(trifluoromethyl)benzoyl]-11-methyl-7-[4-(1-methyl-5-oxo-4H-1,2,4-triazol-3-yl)phenyl]-2,3,7,12-tetrazatricyclo[7.4.0.0^2,6]trideca-1(9),3,5-trien-8-one], `Cc1nn[nH]c1-c1cc(-n2c(=O)c3c(n4ncc(Cc5ccccc5)c24)CN(C(=O)c2ccc(Br)c(C(F)(F)F)c2)[C@H](C)C3)nn1C` (stereo in doubt) [Compound 83a, rac-(11R)-5-benzyl-12-[4-bromo-3-(trifluoromethyl)benzoyl]-11-methyl-7-[1-methyl-5-(4-methyl-1H-triazol-5-yl)pyrazol-3-yl]-2,3,7,12-tetrazatricyclo[7.4.0.0^2,6]trideca-1(9),3,5-trien-8-one] is lower in EC50: 50 to 500 nM for the first, less than 50 nM for the second.

First: Cc1nn[nH]c1-c1cc(-n2c(=O)c3c(n4ncc(Cc5ccccc5)c24)CN(C(=O)c2ccc(Br)c(C(F)(F)F)c2)[C@@H](C)C3)nn1C (stereo in doubt) [Compound 83b, rac-(11S)-5-benzyl-12-[4-bromo-3-(trifluoromethyl)benzoyl]-11-methyl-7-[1-methyl-5-(4-methyl-1H-triazol-5-yl)pyrazol-3-yl]-2,3,7,12-tetrazatricyclo[7.4.0.0^2,6]trideca-1(9),3,5-trien-8-one]
Second: CC[C@@H]1Cc2c(n3ncc(Cc4ccccc4)c3n(-c3ccc4c(NC)n[nH]c4c3)c2=O)CN1C(=O)c1ccc(Br)c(C(F)(F)F)c1 (stereo in doubt) [Compound 84a, rac-(11R)-5-benzyl-12-[4-bromo-3-(trifluoromethyl)benzoyl]-11-ethyl-7-[3-(methylamino)-1H-indazol-6-yl]-2,3,7,12-tetrazatricyclo[7.4.0.0^2,6]trideca-1(9),3,5-trien-8-one]
The EC50 of the first is higher: 50 to 500 nM for the first, less than 50 nM for the second.
